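Values below derive from 48-hour exposures of cells grown in 96-well plates, with endpoints linearly interpolated between the two concentrations bracketing the appropriate inhibition level. GI50: concentration for 50% inhibition of growth. TGI: concentration producing complete growth inhibition.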 Where only a bound is given, the exact number is not on record here.

For the first assay, the system named is HT29 colon. Briefly: NCI anticancer screen, dose series, 48 h.
Regarding `CC(C)(C)OC(=O)N1CCN(CCn2cc(C(F)(F)F)c3c(Cl)ncnc32)CC1`, the GI50 is 3.27 µM and the TGI stood at 11.1 µM.

With `FC(F)(F)c1ccc(Nc2nc(-c3c(C(F)(F)F)nc4ccccn34)cs2)cc1`, the GI50 is 0.0364 µM and the TGI turned out to be 1.99 µM.

Molecule `Cc1ccc(Nc2n[nH]c(=S)s2)cc1C` came in with a TGI of over 100 µM.

In the case of `CN(C)CCN1C(=O)c2ccccc2N(C)c2ccccc21`, the GI50 is over 100 µM and the TGI is over 100 µM.

`O=[N+]([O-])O.[Cu+2].[NH-]CC[NH-].[NH-]CC[NH-]`: the GI50 is over 10 µM and the TGI was over 10 µM.

Turning to `Cc1nn2c(/C=C3\C(=O)Nc4ccc(Cl)cc43)c(C)nc2s1`, the GI50 is 5.16 µM and the TGI is over 100 µM.

Another assay concerns LOX IMVI melanoma. Briefly: NCI anticancer screen, dose series, 48 h.
On to `CC(C)(C)OC(=O)N1CCN(CCn2cc(C(F)(F)F)c3c(Cl)ncnc32)CC1`, for which the GI50 is 1.73 µM and the TGI stood at 3.24 µM.

As for `FC(F)(F)c1ccc(Nc2nc(-c3c(C(F)(F)F)nc4ccccn34)cs2)cc1`, the GI50 is 0.0533 µM and the TGI is 7.95 µM.

For `Cc1ccc(Nc2n[nH]c(=S)s2)cc1C`, the TGI is over 100 µM.

Consider `CN(C)CCN1C(=O)c2ccccc2N(C)c2ccccc21`, for which the GI50 was over 100 µM and the TGI was over 100 µM.

As to `O=[N+]([O-])O.[Cu+2].[NH-]CC[NH-].[NH-]CC[NH-]`, the GI50 is over 10 µM and the TGI is over 10 µM.

In the case of `Cc1nn2c(/C=C3\C(=O)Nc4ccc(Cl)cc43)c(C)nc2s1`, the GI50 was 83.1 µM and the TGI is over 100 µM.

The test system of another assay is MCF7 breast. The experiment in a line: NCI anticancer screen, dose series, 48 h.
As for `CC(C)(C)OC(=O)N1CCN(CCn2cc(C(F)(F)F)c3c(Cl)ncnc32)CC1`, the GI50 is 12.3 µM and the TGI worked out at 32.1 µM.

Regarding `FC(F)(F)c1ccc(Nc2nc(-c3c(C(F)(F)F)nc4ccccn34)cs2)cc1`, the GI50 was 0.0341 µM and the TGI is 5.43 µM.

In turn, `Cc1ccc(Nc2n[nH]c(=S)s2)cc1C` yielded a TGI of over 100 µM.

Turning to `CN(C)CCN1C(=O)c2ccccc2N(C)c2ccccc21`, the GI50 is over 100 µM and the TGI is over 100 µM.

`O=[N+]([O-])O.[Cu+2].[NH-]CC[NH-].[NH-]CC[NH-]`: the GI50 is over 10 µM and the TGI is over 10 µM.

As to `Cc1nn2c(/C=C3\C(=O)Nc4ccc(Cl)cc43)c(C)nc2s1`, the GI50 was 15.6 µM and the TGI was over 100 µM.

The test system of another assay is CCRF-CEM leukemia. Briefly: NCI anticancer screen, dose series, 48 h.
For `CC(C)(C)OC(=O)N1CCN(CCn2cc(C(F)(F)F)c3c(Cl)ncnc32)CC1`, the GI50 was 2.85 µM and the TGI worked out at 9.19 µM.

In the case of `FC(F)(F)c1ccc(Nc2nc(-c3c(C(F)(F)F)nc4ccccn34)cs2)cc1`, the GI50 is 0.0502 µM and the TGI is over 30.8 µM.

For the molecule `Cc1ccc(Nc2n[nH]c(=S)s2)cc1C`, the TGI was over 100 µM.

On to `CN(C)CCN1C(=O)c2ccccc2N(C)c2ccccc21`, for which the GI50 is over 100 µM and the TGI was over 100 µM.

Consider `O=[N+]([O-])O.[Cu+2].[NH-]CC[NH-].[NH-]CC[NH-]`, for which the GI50 was over 10 µM and the TGI was over 10 µM.

As for `Cc1nn2c(/C=C3\C(=O)Nc4ccc(Cl)cc43)c(C)nc2s1`, the GI50 was 21.1 µM and the TGI is over 100 µM.

Another assay deals with HL-60(TB) leukemia. The experiment in a line: NCI anticancer screen, dose series, 48 h.
`CC(C)(C)OC(=O)N1CCN(CCn2cc(C(F)(F)F)c3c(Cl)ncnc32)CC1`: the GI50 was 2.43 µM and the TGI was 6.46 µM.

Take `FC(F)(F)c1ccc(Nc2nc(-c3c(C(F)(F)F)nc4ccccn34)cs2)cc1`: the GI50 is 0.0406 µM and the TGI was 2.25 µM.

Molecule `Cc1ccc(Nc2n[nH]c(=S)s2)cc1C` yielded a TGI of over 100 µM.

As for `CN(C)CCN1C(=O)c2ccccc2N(C)c2ccccc21`, the GI50 is over 100 µM and the TGI is over 100 µM.

As for `O=[N+]([O-])O.[Cu+2].[NH-]CC[NH-].[NH-]CC[NH-]`, the GI50 is over 10 µM and the TGI is over 10 µM.

With `Cc1nn2c(/C=C3\C(=O)Nc4ccc(Cl)cc43)c(C)nc2s1`, the GI50 was 13.5 µM and the TGI turned out to be 43.4 µM.

Another assay has as its system KM12 colon. The experiment in a line: NCI anticancer screen, dose series, 48 h.
As to `CC(C)(C)OC(=O)N1CCN(CCn2cc(C(F)(F)F)c3c(Cl)ncnc32)CC1`, the GI50 is 16.9 µM and the TGI was determined as 35.3 µM.

As for `FC(F)(F)c1ccc(Nc2nc(-c3c(C(F)(F)F)nc4ccccn34)cs2)cc1`, the GI50 is 0.0393 µM and the TGI stood at 4.23 µM.

In turn, `Cc1ccc(Nc2n[nH]c(=S)s2)cc1C` returned a TGI of over 100 µM.

Take `CN(C)CCN1C(=O)c2ccccc2N(C)c2ccccc21`: the GI50 was over 100 µM and the TGI was over 100 µM.

As for `O=[N+]([O-])O.[Cu+2].[NH-]CC[NH-].[NH-]CC[NH-]`, the GI50 was over 10 µM and the TGI was over 10 µM.

As for `Cc1nn2c(/C=C3\C(=O)Nc4ccc(Cl)cc43)c(C)nc2s1`, the GI50 is 6.84 µM and the TGI was over 100 µM.

The test system of another assay is SF-268 CNS. Briefly: NCI anticancer screen, dose series, 48 h.
Turning to `CC(C)(C)OC(=O)N1CCN(CCn2cc(C(F)(F)F)c3c(Cl)ncnc32)CC1`, the GI50 was 1.82 µM and the TGI was 3.61 µM.

Take `FC(F)(F)c1ccc(Nc2nc(-c3c(C(F)(F)F)nc4ccccn34)cs2)cc1`: the GI50 is 0.0754 µM and the TGI came out at 10.7 µM.

Molecule `Cc1ccc(Nc2n[nH]c(=S)s2)cc1C` yielded a TGI of over 100 µM.

In the case of `CN(C)CCN1C(=O)c2ccccc2N(C)c2ccccc21`, the GI50 is over 100 µM and the TGI is over 100 µM.

Turning to `O=[N+]([O-])O.[Cu+2].[NH-]CC[NH-].[NH-]CC[NH-]`, the GI50 was over 10 µM and the TGI was over 10 µM.

`Cc1nn2c(/C=C3\C(=O)Nc4ccc(Cl)cc43)c(C)nc2s1`: the GI50 is 43.2 µM and the TGI is over 100 µM.

The test system of a further assay is HCT-15 colon. The experiment in a line: NCI anticancer screen, dose series, 48 h.
As to `CC(C)(C)OC(=O)N1CCN(CCn2cc(C(F)(F)F)c3c(Cl)ncnc32)CC1`, the GI50 was 1.94 µM and the TGI worked out at 3.94 µM.

As to `FC(F)(F)c1ccc(Nc2nc(-c3c(C(F)(F)F)nc4ccccn34)cs2)cc1`, the GI50 was 0.0406 µM and the TGI stood at 5.64 µM.

The molecule `Cc1ccc(Nc2n[nH]c(=S)s2)cc1C` registered a TGI of over 100 µM.

As for `CN(C)CCN1C(=O)c2ccccc2N(C)c2ccccc21`, the GI50 was over 100 µM and the TGI was over 100 µM.

Turning to `O=[N+]([O-])O.[Cu+2].[NH-]CC[NH-].[NH-]CC[NH-]`, the GI50 was over 10 µM and the TGI was over 10 µM.

On to `Cc1nn2c(/C=C3\C(=O)Nc4ccc(Cl)cc43)c(C)nc2s1`, for which the GI50 was 13.9 µM and the TGI is over 100 µM.

In another assay the test system is SF-295 CNS. The experiment in a line: NCI anticancer screen, dose series, 48 h.
Take `CC(C)(C)OC(=O)N1CCN(CCn2cc(C(F)(F)F)c3c(Cl)ncnc32)CC1`: the GI50 was 14.5 µM and the TGI came to 28.1 µM.

`FC(F)(F)c1ccc(Nc2nc(-c3c(C(F)(F)F)nc4ccccn34)cs2)cc1`: the GI50 was 0.033 µM and the TGI came out at 1.28 µM.

In turn, `Cc1ccc(Nc2n[nH]c(=S)s2)cc1C` came in with a TGI of over 100 µM.

On to `CN(C)CCN1C(=O)c2ccccc2N(C)c2ccccc21`, for which the GI50 is over 100 µM and the TGI was over 100 µM.

For `O=[N+]([O-])O.[Cu+2].[NH-]CC[NH-].[NH-]CC[NH-]`, the GI50 is over 10 µM and the TGI was over 10 µM.

With `Cc1nn2c(/C=C3\C(=O)Nc4ccc(Cl)cc43)c(C)nc2s1`, the GI50 was 16.7 µM and the TGI is over 100 µM.

The next assay relates to PC-3 prostate. Briefly: NCI anticancer screen, dose series, 48 h.
As to `CC(C)(C)OC(=O)N1CCN(CCn2cc(C(F)(F)F)c3c(Cl)ncnc32)CC1`, the GI50 is 1.79 µM and the TGI was determined as 3.43 µM.

Regarding `FC(F)(F)c1ccc(Nc2nc(-c3c(C(F)(F)F)nc4ccccn34)cs2)cc1`, the GI50 was 0.0425 µM and the TGI is 8.54 µM.

`Cc1ccc(Nc2n[nH]c(=S)s2)cc1C` returned a TGI of over 100 µM.

`CN(C)CCN1C(=O)c2ccccc2N(C)c2ccccc21`: the GI50 is over 100 µM and the TGI is over 100 µM.

Consider `O=[N+]([O-])O.[Cu+2].[NH-]CC[NH-].[NH-]CC[NH-]`, for which the GI50 is over 10 µM and the TGI was over 10 µM.

Regarding `Cc1nn2c(/C=C3\C(=O)Nc4ccc(Cl)cc43)c(C)nc2s1`, the GI50 was 21.3 µM and the TGI was over 100 µM.
